This passage reports MIC, Activity and hemolysis results from ChEMBL document CHEMBL5352497, “Aromatic hydrazides: A potential solution for Acinetobacter baumannii infections” (Eur J Med Chem, 2023).

Each structure is given as a SMILES string. Converted amounts (≈) assume the structure as drawn. Some results are limits rather than exact numbers.

For series [1], the system named is Acinetobacter baumannii. The series can be described thus: Antibacterial activity against Acinetobacter baumannii ATCC 19606. In kind it is functional.
In series [2] the test system is Escherichia coli. The series can be described thus: Antibacterial activity against Escherichia coli MC1061. The format is functional.
For series [3], the system named is Enterobacter cloacae. The series can be described thus: Antibacterial activity against Enterobacter cloacae ATCC 13047. In kind it is functional.
For series [4], the system named is Klebsiella pneumoniae. The experiment in a line: Antibacterial activity against Klebsiella pneumoniae ATCC 27736. In kind it is functional.
Series [5] concerns Salmonella enterica. The series can be described thus: Antibacterial activity against Salmonella enterica ATCC 14028. In kind it is functional.
Series [6] has as its system Erythrocyte. The experiment in a line: Hemolytic activity in mouse RBC at 32 ug/ml incubated for 1 hr. The format is toxicity, cell-based. Conditions: erythrocyte, 1 h, dose 32 µg/ml.
The subject of series [7] is Pseudomonas aeruginosa. The series can be described thus: Antibacterial activity against Pseudomonas aeruginosa ATCC 27853. The format is functional.
The subject of series [8] is Bacillus anthracis. The series can be described thus: Antibacterial activity against Bacillus anthracis Sterne F32. The format is functional.
Series [9] concerns Staphylococcus aureus. The experiment in a line: Antibacterial activity against Staphylococcus aureus ATCC 25923. The format is functional.
Series [10] deals with Acinetobacter baumannii. The series can be described thus: Antibacterial activity against Acinetobacter baumannii BAA1605. The format is functional.
Series [11] in a line: Hemolytic activity in mouse RBC at 8 ug/ml incubated for 1 hr. The format is toxicity, cell-based, Erythrocyte. Conditions: red blood cells (erythrocytes), at 8 µg/mL, read-out: Activity.
The subject of series [12] is Staphylococcus epidermidis. The experiment in a line: Antibacterial activity against Staphylococcus epidermidis ATCC 12228. The format is functional.
Series [13] relates to HEK293. The experiment in a line: Cytotoxicity against HEK293 cells at 8 ug/ml. The format is toxicity, cell-based. Conditions: human, dose 8 µg/ml.

For `O=C(NNc1ccc(Cl)cc1)c1cccc(F)n1`, the MIC in series [1] was no more than 0.125 µg/mL; in series [2], 16 µg/mL (≈ 60.2 µM); in series [3], 16 µg/mL (≈ 60.2 µM); in series [4], 16 µg/mL (≈ 60.2 µM); in series [5], 16 µg/mL (≈ 60.2 µM); in series [7] it was greater than 64 µg/mL. For the same compound, the minimum inhibitory concentration (MIC) in [8] is greater than 64 µg/mL; in [9], greater than 64 µg/mL; in series [10], no more than 0.125 µg/mL; in series [12] it was greater than 64 µg/mL. Further, the Activity result in series [6] and in series [13] was “Non-Toxic” each time. For the same compound, the hemolysis at 1 h, 8 ug/ml in series [11] was less than 10%.
In the case of `O=C(NNc1cccc(F)c1)c1cccnc1`, the Activity result in series [6] and in [13] was “Non-Toxic” each time. Further, in series [11], the hemolysis at 1 h, 8 ug/ml is less than 10%.
For `O=C(NNC1CCCCC1)c1ccc(F)cc1F`, the Activity entry in [6] and in series [13] was “Non-Toxic” throughout. Moreover, the hemolysis at 1 h, 8 ug/ml in series [11] is less than 10%.
Turning to `O=C(NNc1cccc(F)c1)c1ccccc1`, the Activity entry in [6] and in [13] was “Non-Toxic” each time. The hemolysis at 1 h, 8 ug/ml in [11] is less than 10%.
For the compound `O=C(NNc1ccc(Cl)cc1)c1ccco1`, the MIC in series [1] is 0.5 µg/mL (≈ 2.11 µM); in series [2], 16 µg/mL (≈ 67.6 µM); in [3], 4 µg/mL (≈ 16.9 µM); in series [4], 16 µg/mL (≈ 67.6 µM); in series [5], 16 µg/mL (≈ 67.6 µM); in series [7], greater than 64 µg/mL. The MIC in [8] was greater than 64 µg/mL; in series [9], 64 µg/mL (≈ 270 µM); in series [10], no more than 0.125 µg/mL; in [12], 64 µg/mL (≈ 270 µM). Moreover, the Activity result in series [6] and in series [13] was “Non-Toxic” throughout. Also, in series [11], the hemolysis at 1 h, 8 ug/ml is less than 10%.
As for `O=C(NNc1ccc(Cl)cc1)c1ccc(F)cc1F`, the minimal inhibitory concentration (MIC) is 0.25 µg/mL (≈ 0.884 µM) in series [1]; 16 µg/mL (≈ 56.6 µM) in series [2]; 16 µg/mL (≈ 56.6 µM) in series [3]; greater than 64 µg/mL in series [4]; greater than 64 µg/mL in series [5]; greater than 64 µg/mL in series [7]. The MIC in [8] was greater than 64 µg/mL; in series [9], greater than 64 µg/mL; in series [10], 0.25 µg/mL (≈ 0.884 µM); in series [12] it was greater than 64 µg/mL. Also, the Activity result in series [6] and in series [13] was “Non-Toxic” throughout. Also, in series [11], the hemolysis at 1 h, 8 ug/ml was less than 10%.
In the case of `O=C(NNc1cccc(F)c1)c1ccc(F)cn1`, the MIC in [1] is 0.5 µg/mL (≈ 2.01 µM); in series [2] it was 64 µg/mL (≈ 257 µM); in series [3], greater than 64 µg/mL; in series [4] it was greater than 64 µg/mL; in [5], greater than 64 µg/mL; in series [7], greater than 64 µg/mL. Moreover, the MIC is greater than 64 µg/mL in [8], greater than 64 µg/mL in series [9], 0.5 µg/mL (≈ 2.01 µM) in series [10] and greater than 64 µg/mL in series [12]. In addition, the Activity entry in series [6] and in series [13] was “Non-Toxic” in each case. Also, the hemolysis at 1 h, 8 ug/ml in [11] is less than 10%.
On to `O=C(NNc1ccc(Cl)cc1)c1cnc2ccccc2n1`, for which the Activity result in [6] and in [13] was “Non-Toxic” each time. In addition, in series [11], the hemolysis at 1 h, 8 ug/ml is less than 10%.
Consider `O=C(NNC1CCCCC1)c1cnccn1`, for which the Activity entry in series [6] and in series [13] was “Non-Toxic” throughout. The hemolysis at 1 h, 8 ug/ml in [11] was less than 10%.
For the compound `O=C(NNc1cccc(F)c1)c1cccc(Br)n1`, the Activity entry in series [6] and in series [13] was “Non-Toxic” throughout. The hemolysis at 1 h, 8 ug/ml in series [11] was less than 10%.
On to `O=C(NNc1cccc(F)c1)c1ncc(F)cc1F`, for which the Activity result in series [6] and in series [13] was “Non-Toxic” in each case. Also, in [11], the hemolysis at 1 h, 8 ug/ml is less than 10%.
For the compound `COc1cccc(NNC(=O)c2ccccn2)c1`, the Activity result in [6] and in [13] was “Non-Toxic” in each case. Besides, the hemolysis at 1 h, 8 ug/ml in series [11] is less than 10%.
`O=C(NNc1cccc(F)c1)c1ccccn1`: the Activity entry in [6] and in series [13] was “Non-Toxic” throughout. In addition, the hemolysis at 1 h, 8 ug/ml in series [11] is less than 10%.
For `O=C(NNC1CCCCC1)c1cccnc1`, the Activity result in series [6] and in [13] was “Non-Toxic” in each case. In addition, the hemolysis at 1 h, 8 ug/ml in series [11] is less than 10%.
Take `O=C(NNc1cccc(F)c1)c1ccc(Br)cn1`: the Activity entry in [6] and in series [13] was “Non-Toxic” each time. Besides, the hemolysis at 1 h, 8 ug/ml in series [11] was less than 10%.
For the compound `O=C(NNc1cccc(F)c1)c1cnccn1`, the Activity result in series [6] and in series [13] was “Non-Toxic” each time. In addition, the hemolysis at 1 h, 8 ug/ml in [11] was less than 10%.
Consider `O=C(NNc1ccc(Cl)cc1)c1cccnc1`, for which the Activity result in series [6] and in [13] was “Non-Toxic” throughout. Also, the hemolysis at 1 h, 8 ug/ml in series [11] was less than 10%.
`CCOC(=O)CNNC(=O)c1ccccn1`: the Activity entry in series [6] and in series [13] was “Non-Toxic” in each case. Besides, the hemolysis at 1 h, 8 ug/ml in series [11] was less than 10%.
With `O=C(NNc1ccc(Cl)cc1)c1cnccn1`, the Activity result in [6] and in series [13] was “Non-Toxic” each time. The hemolysis at 1 h, 8 ug/ml in series [11] is less than 10%.
As to `O=C(NNc1cccc(F)c1)c1cccc(F)n1`, the Activity result in series [6] and in [13] was “Non-Toxic” throughout. The hemolysis at 1 h, 8 ug/ml in series [11] was less than 10%.
As for `O=C(NNc1cccc(F)c1)c1ccc(F)cc1F`, the Activity result in series [6] and in [13] was “Non-Toxic” each time. Besides, the hemolysis at 1 h, 8 ug/ml in [11] was less than 10%.
For `CCOC(=O)CNNC(=O)c1cccc(F)n1`, the Activity result in [6] and in series [13] was “Non-Toxic” each time. Besides, the hemolysis at 1 h, 8 ug/ml in series [11] was less than 10%.
For the compound `CCC(=O)NNc1cccc(F)c1`, the Activity entry in series [6] and in [13] was “Non-Toxic” throughout. In [11], the hemolysis at 1 h, 8 ug/ml was less than 10%.
On to `O=C(NNc1cccc(F)c1)c1nc(F)ccc1F`, for which the Activity result in series [6] and in series [13] was “Non-Toxic” in each case. Also, in series [11], the hemolysis at 1 h, 8 ug/ml is less than 10%.
For the compound `CCOC(=O)CNNC(=O)c1ccc(F)cc1F`, the Activity entry in series [6] and in series [13] was “Non-Toxic” each time. The hemolysis at 1 h, 8 ug/ml in series [11] is less than 10%.
As to `O=C(NNc1ccc(Cl)cc1)c1nc(F)ccc1F`, the Activity entry in [6] and in series [13] was “Non-Toxic” in each case. The hemolysis at 1 h, 8 ug/ml in series [11] was less than 10%.
For the compound `O=C(NNc1cccc(F)c1)c1cc2ccccc2[nH]1`, the Activity entry in series [6] and in series [13] was “Non-Toxic” in each case. Further, the hemolysis at 1 h, 8 ug/ml in series [11] was less than 10%.
Regarding `CCOC(=O)CNNC(=O)c1cnccn1`, the Activity result in series [6] and in series [13] was “Non-Toxic” in each case. For the same compound, the hemolysis at 1 h, 8 ug/ml in series [11] is less than 10%.
On to `CCOC(=O)CNNC(=O)c1ccc(F)cn1`, for which the Activity entry in [6] and in series [13] was “Non-Toxic” in each case. In addition, the hemolysis at 1 h, 8 ug/ml in [11] is less than 10%.
Regarding `O=C(NNc1cccc(F)c1)c1cnc2ccccc2n1`, the Activity entry in [6] and in series [13] was “Non-Toxic” each time. Moreover, the hemolysis at 1 h, 8 ug/ml in [11] is less than 10%.
Turning to `O=C(NNc1ccc(Cl)cc1)c1ncc(F)cc1F`, the Activity result in [6] and in series [13] was “Non-Toxic” each time. Moreover, the hemolysis at 1 h, 8 ug/ml in series [11] was less than 10%.
On to `O=C(NNc1cccc(F)c1)c1ccco1`, for which the Activity result in [6] and in series [13] was “Non-Toxic” in each case. Further, the hemolysis at 1 h, 8 ug/ml in series [11] is less than 10%.

A word on the MIC: it is the smallest concentration in the dilution series that meets the test's criterion for growth inhibition.
